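Exposure lasted 48 hours, with cells grown in 96-well plates and compounds tested at five concentrations. At the GI50, growth is halved.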 Active and inactive are the calls of the source. No stated cut-off is given here; in the data, active = GI50 up to about 1.1 µM and inactive = higher.
Experiments:
Assay in all cases: growth of human tumour cells (NCI), 48 h
MCF7 = test system: MCF7
MOLT-4 = test system: MOLT-4
NCI-H460 = test system: NCI-H460
M14 = test system: M14
OVCAR-8 = test system: OVCAR-8
SW-620 = test system: SW-620
K562 = test system: K562
DU-145 = test system: DU-145
BT-549 = test system: BT-549
HOP-62 = test system: HOP-62
OVCAR-5 = test system: OVCAR-5
SF-295 = test system: SF-295
SNB-19 = test system: SNB-19
COLO 205 = test system: COLO 205
CCRF-CEM = test system: CCRF-CEM
CAKI-1 = test system: CAKI-1
T47D = test system: T47D
MDA-MB-435 = test system: MDA-MB-435
HCT-15 = test system: HCT-15
MDA-MB-231 = test system: MDA-MB-231

Row | SMILES | GI50 (MCF7) | GI50 (MOLT-4) | GI50 (NCI-H460) | GI50 (M14) | GI50 (OVCAR-8) | GI50 (SW-620) | GI50 (K562) | GI50 (DU-145) | GI50 (BT-549) | GI50 (HOP-62) | GI50 (OVCAR-5) | GI50 (SF-295) | GI50 (SNB-19) | GI50 (COLO 205) | GI50 (CCRF-CEM) | GI50 (CAKI-1) | GI50 (T47D) | GI50 (MDA-MB-435) | GI50 (HCT-15) [µM] | GI50 (MDA-MB-231)
1 | c1ccc2sc(C3(N4CCC5(CC4)OCCO5)CCCCC3)cc2c1 | 29.4 µM (inactive) | 29.2 µM (inactive) | 48.5 µM (inactive) | 61.1 µM (inactive) | > 100 µM (inactive) | > 100 µM (inactive) | > 100 µM (inactive) | > 100 µM (inactive) | > 100 µM (inactive) | > 100 µM (inactive) | 55.5 µM (inactive) | > 100 µM (inactive) | > 100 µM (inactive) | 48 µM (inactive) | 29 µM (inactive) | > 100 µM (inactive) | > 100 µM (inactive) | 58.6 µM (inactive) | > 100 | –
2 | O=[N+]([O-])c1ccc(-c2nc3ccccc3o2)cc1 | > 100 µM (inactive) | > 100 µM (inactive) | > 100 µM (inactive) | > 100 µM (inactive) | > 100 µM (inactive) | > 100 µM (inactive) | > 100 µM (inactive) | > 100 µM (inactive) | > 100 µM (inactive) | 69 µM (inactive) | > 100 µM (inactive) | > 100 µM (inactive) | > 100 µM (inactive) | > 100 µM (inactive) | 40.4 µM (inactive) | > 100 µM (inactive) | > 100 µM (inactive) | > 100 µM (inactive) | > 100 | –
3 | COc1ccc(CC2c3cc4c(cc3CCN2C)OCO4)c(C=O)c1OC (centres undefined) | > 100 µM (inactive) | > 100 µM (inactive) | > 100 µM (inactive) | > 100 µM (inactive) | > 100 µM (inactive) | > 100 µM (inactive) | > 100 µM (inactive) | > 100 µM (inactive) | > 100 µM (inactive) | – | > 100 µM (inactive) | > 100 µM (inactive) | > 100 µM (inactive) | > 100 µM (inactive) | > 100 µM (inactive) | 60.5 µM (inactive) | > 100 µM (inactive) | > 100 µM (inactive) | > 100 | > 100 µM (inactive)
4 | COc1c(NC(C)=O)c2ccccc2c2ccccc12 | – | 66.5 µM (inactive) | > 100 µM (inactive) | > 100 µM (inactive) | > 100 µM (inactive) | > 100 µM (inactive) | 75 µM (inactive) | > 100 µM (inactive) | > 100 µM (inactive) | > 100 µM (inactive) | > 100 µM (inactive) | > 100 µM (inactive) | > 100 µM (inactive) | – | > 100 µM (inactive) | – | > 100 µM (inactive) | > 100 µM (inactive) | > 100 | > 100 µM (inactive)
5 | C[C@H]1O[C@@H](O[C@H]2[C@@H](O)C[C@H](O[C@H]3[C@@H](O)C[C@H](O[C@H]4CC[C@@]5(C)[C@H](CC[C@@H]6[C@@H]5CC[C@]5(C)[C@@H](C7=CC(=O)OC7)[C@@H](O)C[C@]65O)C4)O[C@@H]3C)O[C@@H]2C)C[C@H](O)[C@@H]1O [GITOXIN] | – | 0.0277 µM (active) | 0.132 µM (active) | 0.475 µM (active) | 0.226 µM (active) | 0.258 µM (active) | 0.361 µM (active) | 0.0822 µM (active) | 0.116 µM (active) | 0.566 µM (active) | 0.656 µM (active) | 0.169 µM (active) | 0.714 µM (active) | 0.798 µM (active) | 0.109 µM (active) | 0.107 µM (active) | 0.42 µM (active) | 0.365 µM (active) | 0.593 | 1.2 µM (inactive)
6 | Cc1cc(N(CCC#N)CCC#N)ccc1/C=C1N=C(/C=C\c2ccccc2)N(c2ccc(Cl)cc2)C\1=O | 29.2 µM (inactive) | 25 µM (inactive) | 10.8 µM (inactive) | 1.29 µM (inactive) | > 40.8 µM (inactive) | 11.6 µM (inactive) | 0.607 µM (active) | > 100 µM (inactive) | 1.49 µM (inactive) | 5.21 µM (inactive) | 22.2 µM (inactive) | 4.57 µM (inactive) | > 100 µM (inactive) | 0.745 µM (active) | 3.4 µM (inactive) | > 24.3 µM (inactive) | > 100 µM (inactive) | – | 0.718 | > 100 µM (inactive)
7 | CNC(=O)OCC1=C(COC(=O)NC)C(C)N(c2ccc(OC)cc2)C1 (centres undefined) | 50.6 µM (inactive) | 33.6 µM (inactive) | 23 µM (inactive) | 69.5 µM (inactive) | 80.4 µM (inactive) | > 100 µM (inactive) | 69.2 µM (inactive) | > 100 µM (inactive) | > 100 µM (inactive) | 40.3 µM (inactive) | 24.1 µM (inactive) | 88.9 µM (inactive) | > 100 µM (inactive) | 59 µM (inactive) | 47.2 µM (inactive) | – | 37.1 µM (inactive) | > 100 µM (inactive) | > 100 | > 100 µM (inactive)
8 | O=C1N=C2SC(=S)N=C(S)N2NC12c1ccccc1-c1ccccc12 | 6.81 µM (inactive) | > 10 µM (inactive) | 0.736 µM (active) | > 10 µM (inactive) | > 10 µM (inactive) | > 10 µM (inactive) | 8.17 µM (inactive) | > 10 µM (inactive) | > 10 µM (inactive) | > 10 µM (inactive) | – | – | – | > 10 µM (inactive) | 7.78 µM (inactive) | > 10 µM (inactive) | 1.38 µM (inactive) | – | > 10 | > 10 µM (inactive)
9 | Cc1ccc(C(=O)Nc2ccc(CP(=O)(O)O)cc2CP(=O)(O)O)cc1NC(=O)c1cccc(NC(=O)Nc2cccc(C(=O)Nc3cc(C(=O)Nc4ccc(CP(=O)(O)O)cc4CP(=O)(O)O)ccc3C)c2)c1 | > 100 µM (inactive) | > 100 µM (inactive) | > 100 µM (inactive) | > 100 µM (inactive) | > 100 µM (inactive) | 41.8 µM (inactive) | > 100 µM (inactive) | > 100 µM (inactive) | > 100 µM (inactive) | > 100 µM (inactive) | > 100 µM (inactive) | > 100 µM (inactive) | – | > 100 µM (inactive) | > 100 µM (inactive) | > 100 µM (inactive) | > 100 µM (inactive) | > 100 µM (inactive) | > 100 | > 100 µM (inactive)
10 | CC1=C(C(=O)N(C)c2ccc(Cl)c(C(=O)OC(C)C)c2)SCCO1 | 66.5 µM (inactive) | 38.5 µM (inactive) | > 100 µM (inactive) | > 100 µM (inactive) | 70.6 µM (inactive) | > 100 µM (inactive) | 29 µM (inactive) | > 100 µM (inactive) | 40.9 µM (inactive) | – | > 100 µM (inactive) | 60.1 µM (inactive) | 74.6 µM (inactive) | 70.8 µM (inactive) | > 100 µM (inactive) | > 100 µM (inactive) | 31.2 µM (inactive) | 48.6 µM (inactive) | 74 | > 100 µM (inactive)
11 | CCOC(=O)n1cncc1CC(NC(=O)Cc1c(C(=O)C=C(C)C)[nH]c2ccccc12)C(=O)OC (centres undefined) | 24.7 µM (inactive) | 20 µM (inactive) | 22.3 µM (inactive) | 15.6 µM (inactive) | 18.5 µM (inactive) | 25.7 µM (inactive) | 33.7 µM (inactive) | 18.5 µM (inactive) | 20 µM (inactive) | – | 15.5 µM (inactive) | 17.7 µM (inactive) | 14.5 µM (inactive) | 18.1 µM (inactive) | 0.708 µM (active) | 17.9 µM (inactive) | 2.8 µM (inactive) | 18.2 µM (inactive) | 19.1 | 15.5 µM (inactive)
12 | Clc1cccc(Cl)c1C(Nc1nncs1)Nc1nncs1 | 36 µM (inactive) | 17.3 µM (inactive) | 25 µM (inactive) | 36.2 µM (inactive) | 33.8 µM (inactive) | 20.7 µM (inactive) | 31.7 µM (inactive) | 51.5 µM (inactive) | 73.3 µM (inactive) | 50.4 µM (inactive) | 36.5 µM (inactive) | 38.2 µM (inactive) | 52 µM (inactive) | 35.4 µM (inactive) | – | 75.3 µM (inactive) | 56.8 µM (inactive) | 11.1 µM (inactive) | 13 | > 100 µM (inactive)
13 | N#CCCN(CCC#N)c1ccc(/C=C2\N=C(c3ccccc3)N(c3ccc(C(=O)O)cc3)C2=O)cc1 | 37.6 µM (inactive) | 0.641 µM (active) | 27.6 µM (inactive) | 72.1 µM (inactive) | 26.2 µM (inactive) | 21 µM (inactive) | 38.2 µM (inactive) | 69.2 µM (inactive) | 24.4 µM (inactive) | > 100 µM (inactive) | > 100 µM (inactive) | 48.8 µM (inactive) | 32.2 µM (inactive) | 39 µM (inactive) | – | – | 40.7 µM (inactive) | 31.8 µM (inactive) | 40.8 | 52 µM (inactive)
14 | CN1C2CCC1CC(CCOC(c1ccc(F)cc1)c1ccc(F)cc1)C2 (centres undefined) | – | 11.9 µM (inactive) | 17.5 µM (inactive) | 16.4 µM (inactive) | 17.3 µM (inactive) | 19.4 µM (inactive) | 12.4 µM (inactive) | 15.7 µM (inactive) | 16.9 µM (inactive) | 16 µM (inactive) | 15.9 µM (inactive) | 16.9 µM (inactive) | 20.7 µM (inactive) | 11.7 µM (inactive) | 18.4 µM (inactive) | 16.3 µM (inactive) | 18.5 µM (inactive) | 12.4 µM (inactive) | 16.9 | 16.2 µM (inactive)
15 | CCCCNC(=S)c1ccc(OC(=O)Nc2ccc(Cl)cc2)cc1 | 41.7 µM (inactive) | 11.4 µM (inactive) | 10.4 µM (inactive) | 9.27 µM (inactive) | 12.6 µM (inactive) | > 100 µM (inactive) | 1.83 µM (inactive) | > 100 µM (inactive) | 20.6 µM (inactive) | > 100 µM (inactive) | 40.3 µM (inactive) | > 100 µM (inactive) | > 100 µM (inactive) | 15.9 µM (inactive) | 26.3 µM (inactive) | 18.5 µM (inactive) | 58.6 µM (inactive) | 70.1 µM (inactive) | 12.2 | –
